The experiment addresses endogenous cellular BACE2 in the Ins1e rat cell line (Rattus norvegicus (Rat), UniProt Q6IE75). In words: Assay for BACE inhibition by measuring cellular TMEM27 cleavage (ELISA of shed hTMEM27 from INS-TMEM27 cells). The format is cell-based. The following applies: assay a): cellular TMEM27 cleavage, INS-TMEM27 cells (superscript a). An excerpt: a) Assay for BACE Inhibition by Measuring Cellular TMEM27 Cleavage:
The assay uses the principle of inhibition of human TMEM27 cleavage by endogenous cellular BACE2 in the Ins1e rat cell line and shedding from the cell surface into the culture medium, followed by detection in an ELISA assay. Inhibition of BACE2 prevents the cleavage and shedding in a dose-dependent manner.
The stable cell line “INS-TMEM27” represents an INS1e-derived cell line with inducible expression (using the TetOn system) of full-length hTMEM27 in a doxycycline-dependent manner. The cells are cultured throughout the experiment in RPMI1640+Glutamax (Invitrogen) Penicillin/Streptomycin, 10% Fetal bovine serum, […], […], 100 micrograms/ml G418 and 100 microgram/ml hygromycin and are grown inadherent culture at 37° C. in a standard CO2 cell culture incubator.
INS-TMEM27 cells are seeded in 96-well plates. After 2 days in culture, BACE2 inhibitor is added in a range of concentrations as required by the assay and after a further two hours, doxycycline is added to a final concentration of 500 ng/ml. The cells are incubated for a further 46 hours and the supernatant harvested for detection of shed TMEM27.
An ELISA assay (using a pair of mouse anti-human-TMEM27 antibodies, raised against the extracellular domain of TMEM27) is used for detection of TMEM27 in the culture medium. An EC50 for BACE2 inhibition is calculated using the ELISA readout for each inhibitor concentration with standard curve-fitting software such as XLFit for the Excel spreadsheet program.
In general terms: In an ELISA, binding on a coated surface is turned into a signal by an enzyme label.

Chain of endogenous cellular BACE2 in the Ins1e rat cell line (Q6IE75 63-514): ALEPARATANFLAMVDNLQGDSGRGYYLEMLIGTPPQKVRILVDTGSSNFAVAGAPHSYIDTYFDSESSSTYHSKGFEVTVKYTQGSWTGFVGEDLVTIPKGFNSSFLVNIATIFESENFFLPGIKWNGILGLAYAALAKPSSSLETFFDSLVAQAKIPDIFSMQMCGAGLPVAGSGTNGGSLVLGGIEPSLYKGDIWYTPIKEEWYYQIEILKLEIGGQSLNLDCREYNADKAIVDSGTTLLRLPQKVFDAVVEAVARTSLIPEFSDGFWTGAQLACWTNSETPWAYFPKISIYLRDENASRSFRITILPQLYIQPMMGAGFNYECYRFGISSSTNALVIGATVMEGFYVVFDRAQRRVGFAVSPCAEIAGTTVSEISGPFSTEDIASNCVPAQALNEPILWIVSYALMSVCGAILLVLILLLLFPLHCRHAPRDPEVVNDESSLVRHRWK

On to `CN1C(=O)C[C@@](C)(c2cccc(NC(=O)C3(C(F)(F)F)CC3)c2)N=C1N` [Example 12, 1-Trifluoromethyl-cyclopropanecarboxylic acid [3-((S)-2-amino-1,4-dimethyl-6-oxo-1,4,5,6-tetrahydro-pyrimidin-4-yl)-phenyl]-amide], for which the IC50 – broadly, the concentration at which inhibition is half-maximal – was found to be 23 nM. Under `CN1C(=O)C(C)(C)[C@@](C)(c2cc(NCC3CCC3)ccc2F)N=C1N` [Example 70, (S)-2-Amino-6-[5-(C-cyclobutylmethyl-amino)-2-fluoro-phenyl]-3,5,5,6-tetramethyl-5,6-dihydro-3H-pyrimidin-4-one] stands 16 nM; under `CN1C(=O)C(C)(C)[C@@](C)(c2cc(NCc3ncccn3)ccc2F)N=C1N` [Example 85, (S)-2-Amino-6-{2-fluoro-5-[(pyrimidin-2-ylmethyl)-amino]-phenyl}-3,5,5,6-tetramethyl-5,6-dihydro-3H-pyrimidin-4-one], 101 nM; under `CC(Nc1ccc(F)c([C@@]2(C)N=C(N)N(C)C(=O)C2(C)C)c1)C1CC1` (stereo partly drawn) [Example 37, (S)-2-Amino-6-[5-(1-cyclopropyl-ethylamino)-2-fluoro-phenyl]-3,5,5,6-tetramethyl-5,6-dihydro-3H-pyrimidin-4-one], 39 nM. The compound `CN1C(=O)C(C)(C)[C@@](C)(c2cc(NC(=O)CC3CCC3)ccc2F)N=C1N` [Example 27, (S)—N-(3-(2-amino-1,4,5,5-tetramethyl-6-oxo-1,4,5,6-tetrahydropyrimidin-4-yl)-4-fluorophenyl)-2-cyclobutylacetamide] yielded an IC50 of 157 nM. Under `CN1C(=O)C(C)(C)[C@@](C)(c2cc(NC(=O)[C@](C)(O)C(F)(F)F)ccc2F)N=C1N` [Example 143, (S)—N-(3-((S)-2-amino-1,4,5,5-tetramethyl-6-oxo-1,4,5,6-tetrahydropyrimidin-4-yl)-4-fluorophenyl)-3,3,3-trifluoro-2-hydroxy-2-methylpropanamide] stands 44 nM. `CN1C(=O)C(C)(C)[C@@](C)(c2cc(NCc3nn(C(F)F)cc3Cl)ccc2F)N=C1N` [Example 160, (S)-2-Amino-6-{5-[(4-chloro-1-difluoromethyl-1H-pyrazol-3-ylmethyl)-amino]-2-fluoro-phenyl}-3,5,5,6-tetramethyl-5,6-dihydro-3H-pyrimidin-4-one] returned an IC50 of 6 nM. For `CC1CCCC1Nc1ccc(F)c([C@@]2(C)N=C(N)N(C)C(=O)C2(C)C)c1` (stereo partly drawn) [Example 25, (S)-2-Amino-6-[2-fluoro-5-(2-methyl-cyclopentylamino)-phenyl]-3,5,5,6-tetramethyl-5,6-dihydro-3H-pyrimidin-4-one] the value was 4 nM. For `CN1C(=O)C(C)(C)[C@@](C)(c2cc(NC(=O)[C@H]3CC3(F)F)ccc2F)N=C1N` [Example 9, (R)-2,2-Difluoro-cyclopropanecarboxylic acid [3-((S)-2-amino-1,4,5,5-tetramethyl-6-oxo-1,4,5,6-tetrahydro-pyrimidin-4-yl)-4-fluoro-phenyl]-amide] the value was 25 nM; for `CC(CNc1ccc(F)c([C@@]2(C)N=C(N)N(C)C(=O)C2(C)C)c1)C(F)(F)F` (stereo partly drawn) [Example 83, (S)-2-Amino-6-[2-fluoro-5-(3,3,3-trifluoro-2-methyl-propylamino)-phenyl]-3,5,5,6-tetramethyl-5,6-dihydro-3H-pyrimidin-4-one], 12 nM. For `CCNc1ccc(F)c([C@@]2(C)N=C(N)N(C)C(=O)C2(C)C)c1` [Example 91, (S)-2-Amino-6-(5-ethylamino-2-fluoro-phenyl)-3,5,5,6-tetramethyl-5,6-dihydro-3H-pyrimidin-4-one] the value was 322 nM; for `Cc1cc(Nc2ccc(F)c([C@@]3(C)N=C(N)N(C)C(=O)C3(C)C)c2)ccc1C#N` [Example 149, (S)-4-(3-(2-Amino-1,4,5,5-tetramethyl-6-oxo-1,4,5,6-tetrahydropyrimidin-4-yl)-4-fluorophenylamino)-2-methylbenzonitrile], 81 nM. The compound `CN1C(=O)C(C)(C)[C@@](C)(c2cc(NC(=O)CC(F)(F)F)ccc2F)N=C1N` [Example 3, N-[3-((S)-2-Amino-1,4,5,5-tetramethyl-6-oxo-1,4,5,6-tetrahydro-pyrimidin-4-yl)-4-fluoro-phenyl]-3,3,3-trifluoro-propionamide] returned an IC50 of 11 nM. For `CN1C(=O)C(C)(C)[C@@](C)(c2cc(NC3CCN(c4ccc(F)cc4)C3)ccc2F)N=C1N` (stereo partly drawn) [Example 31, (6S)-2-Amino-6-(2-fluoro-5-(1-(4-fluorophenyl)pyrrolidin-3-ylamino)phenyl)-3,5,5,6-tetramethyl-5,6-dihydropyrimidin-4(3H)-one] the value was 37 nM. Under `CN1C(=O)C(C)(C)[C@@](C)(c2cc(NC(=O)C(O)C(F)(F)F)ccc2F)N=C1N` (stereo partly drawn) [Example 8, N-[3-((S)-2-Amino-1,4,5,5-tetramethyl-6-oxo-1,4,5,6-tetrahydro-pyrimidin-4-yl)-4-fluoro-phenyl]-3,3,3-trifluoro-2-hydroxy-propionamide] stands 9 nM. Turning to `CN1C(=O)C(C)(C)[C@@](C)(c2cc(Nc3ccccc3OC(F)F)ccc2F)N=C1N` [Example 73, (S)-2-Amino-6-(5-(2-(difluoromethoxy)phenylamino)-2-fluorophenyl)-3,5,5,6-tetramethyl-5,6-dihydropyrimidin-4(3H)-one], the IC50 turned out to be 135 nM. For `CC(Nc1ccc(F)c([C@@]2(C)N=C(N)N(C)C(=O)C2(C)C)c1)c1ccccc1` (stereo partly drawn) [Example 38, (S)-2-Amino-6-[2-fluoro-5-(1-phenyl-ethylamino)-phenyl]-3,5,5,6-tetramethyl-5,6-dihydro-3H-pyrimidin-4-one] the value was 48 nM. For `COc1ccc(C(F)(F)F)cc1Nc1ccc(F)c([C@@]2(C)N=C(N)N(C)C(=O)C2(C)C)c1` [Example 121, (S)-2-Amino-6-(2-fluoro-5-(2-methoxy-5-(trifluoromethyl)phenylamino)phenyl)-3,5,5,6-tetramethyl-5,6-dihydropyrimidin-4(3H)-one] the value was 9 nM.

`CN1C(=O)C(C)(C)[C@@](C)(c2cc(NC(=O)[C@@H]3CC3(F)F)ccc2F)N=C1N` [Example 10, (S)-2,2-difluoro-cyclopropanecarboxylic acid [3-((S)-2-amino-1,4,5,5-tetramethyl-6-oxo-1,4,5,6-tetrahydro-pyrimidin-4-yl)-4-fluoro-phenyl]-amide] came in with an IC50 of 2 nM. Under `CC(Nc1ccc(F)c([C@@]2(C)N=C(N)N(C)C(=O)C2(C)C)c1)c1ncccn1` (stereo partly drawn) [Example 80, (S)-2-Amino-6-[2-fluoro-5-(1-pyrimidin-2-yl-ethylamino)-phenyl]-3,5,5,6-tetramethyl-5,6-dihydro-3H-pyrimidin-4-one] stands 44 nM; under `CN1C(=O)C(C)(C)[C@@](C)(c2cc(NCC3(C)CC3(F)F)ccc2F)N=C1N` (stereo partly drawn) [Example 68, (S)-2-Amino-6-{5-[(2,2-difluoro-1-methyl-cyclopropylmethyl)-amino]-2-fluoro-phenyl}-3,5,5,6-tetramethyl-5,6-dihydro-3H-pyrimidin-4-one], 3 nM; under `CN1C(=O)C(C)(C)[C@@](C)(c2cc(Nc3ccccc3OC(F)(F)F)ccc2F)N=C1N` [Example 74, (S)-2-Amino-6-(2-fluoro-5-(2-(trifluoromethoxy)phenylamino)phenyl)-3,5,5,6-tetramethyl-5,6-dihydropyrimidin-4(3H)-one], 76 nM. Under `CN1C(=O)C(C)(C)[C@@](C)(c2cc(NC3[C@H]4[C@@H](C[C@H]3O)[C@@H]4C(=O)O)ccc2F)N=C1N` (stereo partly drawn) [Example 117, (1S,3R,5R,6S)-2-(3-((S)-2-amino-1,4,5,5-tetramethyl-6-oxo-1,4,5,6-tetrahydropyrimidin-4-yl)-4-fluorophenylamino)-3-hydroxybicyclo[3.1.0]hexane-6-carboxylic acid] stands 226 nM. On to `CN1C(=O)C(C)(C)[C@@](C)(c2cccc(NC(=O)C3(C(F)(F)F)CC3)c2)N=C1N` [Example 2, 1-Trifluoromethyl-cyclopropanecarboxylic acid [3-((R)-2-amino-1,4,5,5-tetramethyl-6-oxo-1,4,5,6-tetrahydro-pyrimidin-4-yl)-phenyl]-amide], for which 82 nM corresponded to half-maximal inhibition (IC50).

`COc1ccc(Nc2ccc(F)c([C@@]3(C)N=C(N)N(C)C(=O)C3(C)C)c2)c(OC)c1` [Example 108, (S)-2-Amino-6-(5-(2,4-dimethoxyphenylamino)-2-fluorophenyl)-3,5,5,6-tetramethyl-5,6-dihydropyrimidin-4(3H)-one] gave an IC50 of 178 nM. For `CN1C(=O)C(C)(C)[C@@](C)(c2cc(NCC3CC3(F)F)ccc2F)N=C1N` (stereo partly drawn) [Example 58, (S)-2-Amino-6-{5-[(2,2-difluoro-cyclopropylmethyl)-amino]-2-fluoro-phenyl}-3,5,5,6-tetramethyl-5,6-dihydro-3H-pyrimidin-4-one] the value was 10 nM; for `CN1C(=O)C(C)(C)[C@@](C)(c2cc(Nc3cc(F)ccc3F)ccc2F)N=C1N` [Example 145, (S)-2-Amino-6-[5-(2,5-difluoro-phenylamino)-2-fluoro-phenyl]-3,5,5,6-tetramethyl-5,6-dihydro-3H-pyrimidin-4-one], 14 nM.

For the origin of these results see US8815881B2 (Hoffmann-La Roche Inc., priority 2010, dated 2014).
